Patent US20090022694A1, “SIRT1 INHIBITION” (priority 2005, published 2009)

Target: T1, SirT1 (Homo sapiens, UniProt Q96EB6)
T1 sequence (Q96EB6 1-747): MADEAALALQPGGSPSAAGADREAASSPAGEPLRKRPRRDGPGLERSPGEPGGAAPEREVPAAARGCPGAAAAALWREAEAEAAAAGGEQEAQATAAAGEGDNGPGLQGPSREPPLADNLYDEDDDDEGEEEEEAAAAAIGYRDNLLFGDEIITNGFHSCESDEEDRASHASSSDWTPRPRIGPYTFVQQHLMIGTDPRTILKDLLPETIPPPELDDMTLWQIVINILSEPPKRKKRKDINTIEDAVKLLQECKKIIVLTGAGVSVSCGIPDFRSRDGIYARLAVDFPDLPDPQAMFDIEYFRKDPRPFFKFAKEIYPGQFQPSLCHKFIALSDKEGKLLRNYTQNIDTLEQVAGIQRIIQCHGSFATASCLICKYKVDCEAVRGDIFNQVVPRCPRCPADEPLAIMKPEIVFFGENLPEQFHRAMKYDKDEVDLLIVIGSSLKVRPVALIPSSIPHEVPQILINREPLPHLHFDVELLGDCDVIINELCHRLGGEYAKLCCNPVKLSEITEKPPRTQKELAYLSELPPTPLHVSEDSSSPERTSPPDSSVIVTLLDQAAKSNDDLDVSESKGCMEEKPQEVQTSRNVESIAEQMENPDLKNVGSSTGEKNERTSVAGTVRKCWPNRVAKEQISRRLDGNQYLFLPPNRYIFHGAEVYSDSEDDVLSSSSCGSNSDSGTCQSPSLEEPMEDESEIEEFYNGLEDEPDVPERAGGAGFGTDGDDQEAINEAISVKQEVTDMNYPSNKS
Test: SirT1 enzymatic assay, p53-382 Fluor-de-Lys (FdL)
Format: biochemical
Details: for IC50: Table 1, exemplary compounds
Description: The ability of a compound to inhibit SIRT1 can be evaluated in many ways. In some embodiments, interaction with, e.g., binding of, SIRT1 can be assayed in vitro. The reaction mixture can include a SIRT1 co-factor such as NAD and/or a NAD analog. In other embodiments, the ability of the compound to inhibit an enzymatic function, e.g., deacetylase activity of SIRT1, can be assayed in vitro. Assays can include determining the IC50 of the compound.
An exemplary assay method includes a multi-well format of the SirT1 enzymatic assay that is based on the commercial “Fluor-de-Lys” assay principle by Biomol, which is fluorogenic (www.biomol.com/store/Product_Data_PDFs/ak500.pdf). In this assay, deacetylation of the s-amino function of a lysyl residue is coupled to a fluorogenic development step that is dependent on the unblocked ε-amino functionality and generates fluorescent aminomethylcoumarin. Fluorescence can be read on a commercial […]. Standard enzymological analyses can be used to determine Ki.

SMILES	IC50	activity against the SirT1 enzyme compared with the enantiomer (isomer with negative optical rotation vs enantiomer with positive optical rotation)
CC(=O)N1CCc2c([nH]c3ccc(Cl)cc23)C1C(N)=O (stereo not shown) [Compound 58, 2-acetyl-6-chloro-2,3,4,9-tetrahydro-1H-pyrido[3,4-b]indole-1-carboxamide]	> 10 µM	
NC(=O)C1NCCc2c1[nH]c1ccc(Cl)cc21 (stereo not shown) [Compound 56, 6-chloro-2,3,4,9-tetrahydro-1H-pyrido[3,4-b]indole-1-carboxamide]	> 10 µM	
NC(=O)C1CCCc2c1[nH]c1ccc(Cl)cc21 (single isomer, unassigned) [isomer of compound 4 having a negative optical rotation, 6-Chloro-2,3,4,9-tetrahydro-1H-carbazole-1-carboxylic acid amide]		greater activity against the SirT1 enzyme
O=C(O)C1CCCc2c1[nH]c1ccc(O)cc21 (stereo not shown) [Compound 54, 6-hydroxy-2,3,4,9-tetrahydro-1H-carbazole-1-carboxylic acid]	> 10 µM	
